Literature values, collected in patent US8652545B2, “Composition of a liquid dietary supplement to treat symptoms of autism spectrum disorders in children” (Reverta Health Solutions LLC, priority 2008, dated 2014).

Key:
[1] = tested on: individuals diagnosed with autism; details: high doses, given with magnesium; Nye and Brice (2005)
[2] = in vivo
[3] = in vivo; remark: listed apart in the source

crossing of the blood-brain barrier [2] | Compound | benefit in individuals diagnosed with autism [1] | sleep [3] | stress [3]
– | Cc1ncc(CO)c(CO)c1O.Cl [vitamin B6, Vitamin B6] | extremely beneficial | – | –
easily crosses the blood-brain barrier | CCNC(=O)CC[C@H](N)C(=O)O [Theanine] | – | promote a more restful deep sleep | reduce stress
